Assay results published in patent US12435044B2, “Pyridazinone herbicides and pyridazinone intermediates used to prepare a herbicide” (FMC Corporation, priority 2018, dated 2025).

What was measured:
Assay in all cases: Test I pre-/postemergence, mixtures of Cpd. No. 20 with saflufenacil or pyroxasulfone
Format in all cases: in vivo
[1] = tested on: soybean (GLXMA; Glycine max, cv. Pioneer 35T58); conditions: for Plant response rating (0 to 100 scale): Preemergence, GLXMA
Description: (§1) This test evaluated the effect of mixtures of Cpd. No. 20 with saflufenacil or pyroxasulfone on several plant species. Seeds of plant species selected from corn (ZEAMD; Zea mays, cv. ‘Pioneer 1184’), soybean (GLXMA; Glycine max, cv. Pioneer 35T58), giant foxtail (SETFA; Setaria faberi), palmer amaranth (AMAPA; Amaranthus palmeri), common waterhemp (AMATU; Amaranthus rudis), mare's tail (ERICA; Conyza canadensis), and common ragweed (AMBEL; Ambrosia artemisiifolia) were planted in pots containing Tama Silt Loam soil and treated preemergence with a directed soil spray using test chemicals formulated in a non-phytotoxic solvent mixture which included a surfactant.
(§2) At the same time, plants selected from these crop and weed species were planted in pots containing Redi-Earth® planting medium (Scotts Company, 14111 Scottslawn Road, Marysville, Ohio 43041) comprising spaghnum peat moss, vermiculite, wetting agent and starter nutrients and treated postemergence with test chemicals formulated in the same manner. Plants ranged in height from 2 to 10 cm and were in the one- to two-leaf stage for the postemergence treatment. Treated plants and untreated controls were maintained in a greenhouse for approximately 14-21 d, after which time all treated plants were compared to untreated controls and visually evaluated for injury. Plant response ratings, summarized in Tables 11 to 14, are based on a 0 to 100 scale where 0 is no effect and 100 is complete control. A dash (-) response means no test result. Test results are presented as a mean of 4 reps.

[2] = tested on: common ragweed (AMBEL; Ambrosia artemisiifolia); conditions: for Plant response rating (0 to 100 scale): Preemergence, AMBEL
Description: as §1, §2

[3] = tested on: common waterhemp (AMATU; Amaranthus rudis); conditions: for Plant response rating (0 to 100 scale): Preemergence, AMATU
Description: as §1, §2

[4] = tested on: giant foxtail (SETFA; Setaria faberi); conditions: for Plant response rating (0 to 100 scale): Preemergence, SETFA
Description: as §1, §2

[5] = tested on: corn (ZEAMD; Zea mays, cv. ‘Pioneer 1184’); conditions: for Plant response rating (0 to 100 scale): Preemergence, ZEAMD
Description: as §1, §2

[6] = tested on: mare's tail (ERICA; Conyza canadensis); conditions: for Plant response rating (0 to 100 scale): Preemergence, ERICA
Description: as §1, §2

[7] = tested on: palmer amaranth (AMAPA; Amaranthus palmeri); conditions: for Plant response rating (0 to 100 scale): Preemergence, AMAPA
Description: as §1, §2

Row | Compound | GLXMA plant response rating, 0 to 100 scale ([1]; postemergence, 4 g a.i./ha) | GLXMA plant response rating, 0 to 100 scale ([1]; postemergence, 8 g a.i./ha) | AMBEL plant response rating, 0 to 100 scale ([2]; postemergence, 4 g a.i./ha) | AMBEL plant response rating, 0 to 100 scale ([2]; postemergence, 8 g a.i./ha) | AMATU plant response rating, 0 to 100 scale ([3]; postemergence, 4 g a.i./ha) | AMATU plant response rating, 0 to 100 scale ([3]; postemergence, 8 g a.i./ha) | SETFA plant response rating, 0 to 100 scale ([4]; postemergence, 4 g a.i./ha) | SETFA plant response rating, 0 to 100 scale ([4]; postemergence, 8 g a.i./ha) | ZEAMD plant response rating, 0 to 100 scale ([5]; postemergence, 4 g a.i./ha) | ZEAMD plant response rating, 0 to 100 scale ([5]; postemergence, 8 g a.i./ha) | ERICA plant response rating, 0 to 100 scale ([6]; postemergence, 4 g a.i./ha) | ERICA plant response rating, 0 to 100 scale ([6]; postemergence, 8 g a.i./ha) | AMAPA plant response rating, 0 to 100 scale ([7]; postemergence, 4 g a.i./ha) | AMAPA plant response rating, 0 to 100 scale ([7]; postemergence, 8 g a.i./ha) | further results
1 | CC(C)N(C)S(=O)(=O)NC(=O)c1cc(-n2c(=O)cc(C(F)(F)F)n(C)c2=O)c(F)cc1Cl [Saflufenacil, saflufenacil, reference compound] | 74 | 91 | 100 | 100 | 85 | 90 | 23 | 55 | 15 | 70 | 95 | 100 | 84 | 70 | Plant response rating (0 to 100 scale) ([1]; Saflufenacil 4 g a.i./ha alone): 0; Plant response rating (0 to 100 scale) ([1]; Saflufenacil 8 g a.i./ha alone): 0; Plant response rating (0 to 100 scale) ([2]; Saflufenacil 4 g a.i./ha alone): 96; Plant response rating (0 to 100 scale) ([2]; Saflufenacil 8 g a.i./ha alone): 100; Plant response rating (0 to 100 scale) ([3]; Saflufenacil 4 g a.i./ha alone): 55; Plant response rating (0 to 100 scale) ([3]; Saflufenacil 8 g a.i./ha alone): 84; Plant response rating (0 to 100 scale) ([4]; Saflufenacil 4 g a.i./ha alone): 0; Plant response rating (0 to 100 scale) ([4]; Saflufenacil 8 g a.i./ha alone): 0; Plant response rating (0 to 100 scale) ([5]; Saflufenacil 4 g a.i./ha alone): 0; Plant response rating (0 to 100 scale) ([5]; Saflufenacil 8 g a.i./ha alone): 0; Plant response rating (0 to 100 scale) ([6]; Saflufenacil 4 g a.i./ha alone): 94; Plant response rating (0 to 100 scale) ([6]; Saflufenacil 8 g a.i./ha alone): 100; Plant response rating (0 to 100 scale) ([7]; Saflufenacil 4 g a.i./ha alone): 35; Plant response rating (0 to 100 scale) ([7]; Saflufenacil 8 g a.i./ha alone): 88
2 | Cn1nc(C(F)(F)F)c(CS(=O)(=O)C2=NOC(C)(C)C2)c1OC(F)F [Pyroxasulfone, pyroxasulfone, reference compound] | 0 | 15 | 0 | 24 | 0 | 0 | 0 | 6 | 0 | 0 | 0 | 0 | 15 | 0 | GLXMA plant response rating, 0 to 100 scale ([1]; preemergence, 4 g a.i./ha): 0; GLXMA plant response rating, 0 to 100 scale ([1]; preemergence, 8 g a.i./ha): 0; AMBEL plant response rating, 0 to 100 scale ([2]; preemergence, 4 g a.i./ha): 0; AMBEL plant response rating, 0 to 100 scale ([2]; preemergence, 8 g a.i./ha): 0; AMATU plant response rating, 0 to 100 scale ([3]; preemergence, 4 g a.i./ha): 5; AMATU plant response rating, 0 to 100 scale ([3]; preemergence, 8 g a.i./ha): 45; SETFA plant response rating, 0 to 100 scale ([4]; preemergence, 4 g a.i./ha): 76; SETFA plant response rating, 0 to 100 scale ([4]; preemergence, 8 g a.i./ha): 98; ZEAMD plant response rating, 0 to 100 scale ([5]; preemergence, 4 g a.i./ha): 0; ZEAMD plant response rating, 0 to 100 scale ([5]; preemergence, 8 g a.i./ha): 0; ERICA plant response rating, 0 to 100 scale ([6]; preemergence, 4 g a.i./ha): 79; ERICA plant response rating, 0 to 100 scale ([6]; preemergence, 8 g a.i./ha): 100; AMAPA plant response rating, 0 to 100 scale ([7]; preemergence, 4 g a.i./ha): 0; AMAPA plant response rating, 0 to 100 scale ([7]; preemergence, 8 g a.i./ha): 38
